Measurements reported in patent US20230302131A1, “MPC INHIBITION FOR PRODUCING T-CELLS WITH A MEMORY PHENOTYPE” (UNIVERSITÉ DE LAUSANNE, priority 2020, published 2023).

Tests used:
OT1 CD8 T cells = assay: In vitro activation of OT1 splenocytes with N4 peptide and IL-2, CD62L by flow cytometry; type: cell-based, mouse
Protocol: To evaluate the effects of MPC inhibition on T cell differentiation, OT1 splenocytes were cultured in the presence of 1 μg/ml ovalbumin-derived N4 (SIINFEKL) peptide, 100 IU/ml recombinant human IL-2 (rhIL-2) and the MPC inhibitor (MPCi) UK5099 at 75 μM or control DMSO for 3 days. The inhibitor or DMSO was then washed away and the cells were cultured for 4 more days in the presence of 100 IU/ml IL-2 and 10 ng/ml rhIL-7 (FIG. 1A). […] Thus, the increase in the memory markers upon MPCi in vitro treatment occurs at the transcriptional level.
OT1 splenocytes were cultured for 3 days at a concentration of 10^6 cells per mL in RPMI medium (Gibco 61870-01) supplemented with 10% FBS, (Gibco 10270-106), 1% Penicillin/Streptomycin (Gibco 15070-063), 50 μM β-mercaptoethanol, 1% HEPES (Gibco 15630-080), 1× Non-essential amino acids (Gibco 11140-035), 1% L-glutamine (Gibco 25030-081), 1 mM Sodium Pyruvate (Gibco 11360-039). Cells were additionally supplemented with hIL-2 100 U/ml (Glaxo-IMB), ovalbumin N4 peptide (SIINFEKL) 1 μg/ml and either with 75 μM UK5099 (Sigma Aldrich) or with their solvent DMSO as a control. At day 3, splenocytes were collected, washed and split, and cells were cultured for 4 additional days with 100 U/ml hIL-2 and hIL-7 (Peprotech 200-07) supplemented either with 75 μM UK5099 (Sigma Aldrich) or DMSO. […]

[1] = tested on: human CD8 T cells from umbilical cord blood; assay: Human cord blood PBMC culture with anti-CD3/CD28 beads, CD62L in CD8 T cells by flow cytometry; type: cell-based; details: 25 μM; day 11; 3 different donors; versus DMSO
Protocol: To most closely mimic the experimental conditions that were successful by using naïve mouse OT1 CD8 T cells, it was tested whether the MPCi on the most naïve human CD8+ T cells can be obtained, i.e. from umbilical cord blood (FIG. 1E).
(§1) Peripheral blood mononuclear cells were isolated from fresh umbilical vein cord blood on a Percoll gradient. PBMCs were then cultured in RPMI supplemented with 10% human serum. 10^4 PBMC's were seeded per well in a round bottom 96-well plate and activated with anti-CD3/CD28 beads at a 1:2 cell:bead ratio and 300 U/ml rhIL-2, in the presence of 25 μM UK5099 or DMSO. Cells were regularly split and CD62L expression was determined by flow cytometry on day 11.

human CD4 T cells = assay: Human cord blood PBMC culture, CD62L in CD3-pos/CD8-neg (CD4) T cells; type: cell-based; details: 25 μM; day 11; vs DMSO
Protocol: as §1
CD62L expression in human CD4 T cells was also analyzed. Human cord blood PBMCs were cultured and activated as described before, in the presence of 25p M UK5099 or DMSO control. About 98% of the cells in culture on day 11 are CD3-positive. Since CD3 is exclusively expressed on CD4 and CD8 T cells, we can deduct that all CD3-positive, CD8-negative must be CD4 T cells. When analyzing the CD3-pos/CD8-neg population we observed that CD62L expression is increased upon MPCi treatment (FIG. 5D).

SMILES: N#CC(=Cc1cn(-c2ccccc2)c2ccccc12)C(=O)O [UK5099, 2-cyano-3-(1-phenyl-1H-indol-3-yl)-2-propenoic acid]
- surface expression of the central memory marker CD62L (OT1 CD8 T cells; 75 μM d0-d3, then washed away, flow cytometry day 7, compared to DMSO): strong increase
- surface CD62L expression at day 7, continued treatment (OT1 CD8 T cells; MPCi treatment continued between d3 and d7): even more pronounced than a d0-d3 treatment only
- CD62L expression in human cord blood CD8 T cells [1]: significant increase
- CD62L expression in human CD3-pos/CD8-neg (CD4) T cells (human CD4 T cells): increased
